Data reported in the NIST ThermoML archive (doi:10.1016/j.jct.2017.03.006).

Assay: xn = mol fraction of the nth substance listed
Details: Liquid; for viscosity: Concentric cylinders viscometry; for mass density: Vibrating tube method

Cc1ccc(C)c(C)c1 [1,2,4-trimethylbenzene] + CCCCO
Details	mass density [kg/m3]	viscosity [mPa·s]
313.15 K, 100 kPa, x2 = 0	859	–
313.15 K, 100 kPa, x2 = 0.1005	853.7	–
313.15 K, 100 kPa, x2 = 0.2261	847.1	–
313.15 K, 100 kPa, x2 = 0.2999	843.2	–
313.15 K, 100 kPa, x2 = 0.3966	837.7	–
313.15 K, 100 kPa, x2 = 0.5289	829.9	–
313.15 K, 100 kPa, x2 = 0.53	–	0.882
313.15 K, 100 kPa, x2 = 0.6367	822.9	–
313.15 K, 100 kPa, x2 = 0.637	–	0.994
313.15 K, 100 kPa, x2 = 0.7249	816.8	–
313.15 K, 100 kPa, x2 = 0.7975	–	1.254
313.15 K, 100 kPa, x2 = 0.7977	811.4	–
313.15 K, 100 kPa, x2 = 0.9131	802	1.516
313.15 K, 1000 kPa, x2 = 0	859.7	–
313.15 K, 1000 kPa, x2 = 0.1005	854.4	–
313.15 K, 1000 kPa, x2 = 0.2261	847.8	–
313.15 K, 1000 kPa, x2 = 0.2999	843.9	–
313.15 K, 1000 kPa, x2 = 0.3966	838.4	–
313.15 K, 1000 kPa, x2 = 0.5289	830.6	–
313.15 K, 1000 kPa, x2 = 0.6367	823.6	–
313.15 K, 1000 kPa, x2 = 0.7249	817.5	–
313.15 K, 1000 kPa, x2 = 0.7977	812	–
313.15 K, 1000 kPa, x2 = 0.9131	802.8	–
313.15 K, 5000 kPa, x2 = 0	862.6	–
313.15 K, 5000 kPa, x2 = 0.1005	857.3	–
313.15 K, 5000 kPa, x2 = 0.2261	850.7	–
313.15 K, 5000 kPa, x2 = 0.2999	846.9	–
313.15 K, 5000 kPa, x2 = 0.3966	841.5	–
313.15 K, 5000 kPa, x2 = 0.5289	833.7	–
313.15 K, 5000 kPa, x2 = 0.6367	826.7	–
313.15 K, 5000 kPa, x2 = 0.7249	820.6	–
313.15 K, 5000 kPa, x2 = 0.7977	815.2	–
313.15 K, 5000 kPa, x2 = 0.9131	805.9	–
313.15 K, 10000 kPa, x2 = 0	866	–
313.15 K, 10000 kPa, x2 = 0.1005	860.8	–
313.15 K, 10000 kPa, x2 = 0.2261	854.3	–
313.15 K, 10000 kPa, x2 = 0.2999	850.5	–
313.15 K, 10000 kPa, x2 = 0.3966	845.1	–
313.15 K, 10000 kPa, x2 = 0.5289	837.3	–
313.15 K, 10000 kPa, x2 = 0.6367	830.4	–
313.15 K, 10000 kPa, x2 = 0.7249	824.3	–
313.15 K, 10000 kPa, x2 = 0.7977	818.9	–
313.15 K, 10000 kPa, x2 = 0.9131	809.7	–
313.15 K, 20000 kPa, x2 = 0	872.6	–
313.15 K, 20000 kPa, x2 = 0.1005	867.5	–
313.15 K, 20000 kPa, x2 = 0.2261	861	–
313.15 K, 20000 kPa, x2 = 0.2999	857.2	–
313.15 K, 20000 kPa, x2 = 0.3966	851.9	–
313.15 K, 20000 kPa, x2 = 0.5289	844.1	–
313.15 K, 20000 kPa, x2 = 0.6367	837.3	–
313.15 K, 20000 kPa, x2 = 0.7249	831.2	–
313.15 K, 20000 kPa, x2 = 0.7977	825.8	–
313.15 K, 20000 kPa, x2 = 0.9131	816.7	–
313.15 K, 30000 kPa, x2 = 0	878.7	–
313.15 K, 30000 kPa, x2 = 0.1005	873.8	–
313.15 K, 30000 kPa, x2 = 0.2261	867.4	–
313.15 K, 30000 kPa, x2 = 0.2999	863.6	–
313.15 K, 30000 kPa, x2 = 0.3966	858.3	–
313.15 K, 30000 kPa, x2 = 0.5289	850.6	–
313.15 K, 30000 kPa, x2 = 0.6367	843.7	–
313.15 K, 30000 kPa, x2 = 0.7249	837.7	–
313.15 K, 30000 kPa, x2 = 0.7977	832.4	–
313.15 K, 30000 kPa, x2 = 0.9131	823.2	–
313.15 K, 40000 kPa, x2 = 0	884.5	–
313.15 K, 40000 kPa, x2 = 0.1005	879.6	–
313.15 K, 40000 kPa, x2 = 0.2261	873.2	–
313.15 K, 40000 kPa, x2 = 0.2999	869.5	–
313.15 K, 40000 kPa, x2 = 0.3966	864.1	–
313.15 K, 40000 kPa, x2 = 0.5289	856.5	–
313.15 K, 40000 kPa, x2 = 0.6367	849.7	–
313.15 K, 40000 kPa, x2 = 0.7249	843.7	–
313.15 K, 40000 kPa, x2 = 0.7977	838.4	–
313.15 K, 40000 kPa, x2 = 0.9131	829.4	–
313.15 K, 50000 kPa, x2 = 0	889.9	–
313.15 K, 50000 kPa, x2 = 0.1005	885	–
313.15 K, 50000 kPa, x2 = 0.2261	878.7	–
313.15 K, 50000 kPa, x2 = 0.2999	875	–
313.15 K, 50000 kPa, x2 = 0.3966	869.7	–
313.15 K, 50000 kPa, x2 = 0.5289	862.1	–
313.15 K, 50000 kPa, x2 = 0.6367	855.3	–
313.15 K, 50000 kPa, x2 = 0.7249	849.4	–
313.15 K, 50000 kPa, x2 = 0.7977	844	–
313.15 K, 50000 kPa, x2 = 0.9131	835	–
313.15 K, 60000 kPa, x2 = 0	895	–
313.15 K, 60000 kPa, x2 = 0.1005	890.2	–
313.15 K, 60000 kPa, x2 = 0.2261	883.9	–
313.15 K, 60000 kPa, x2 = 0.2999	880.2	–
313.15 K, 60000 kPa, x2 = 0.3966	875	–
313.15 K, 60000 kPa, x2 = 0.5289	867.4	–
313.15 K, 60000 kPa, x2 = 0.6367	860.6	–
313.15 K, 60000 kPa, x2 = 0.7249	854.7	–
313.15 K, 60000 kPa, x2 = 0.7977	849.3	–
313.15 K, 60000 kPa, x2 = 0.9131	840.3	–
313.15 K, 70000 kPa, x2 = 0	899.9	–
313.15 K, 70000 kPa, x2 = 0.1005	895.2	–
313.15 K, 70000 kPa, x2 = 0.2261	888.9	–
313.15 K, 70000 kPa, x2 = 0.2999	885.2	–
313.15 K, 70000 kPa, x2 = 0.3966	880	–
313.15 K, 70000 kPa, x2 = 0.5289	872.5	–
313.15 K, 70000 kPa, x2 = 0.6367	865.6	–
313.15 K, 70000 kPa, x2 = 0.7249	859.8	–
313.15 K, 70000 kPa, x2 = 0.7977	854.4	–
313.15 K, 70000 kPa, x2 = 0.9131	845.4	–
313.15 K, 80000 kPa, x2 = 0	904.6	–
313.15 K, 80000 kPa, x2 = 0.1005	899.9	–
313.15 K, 80000 kPa, x2 = 0.2261	893.7	–
313.15 K, 80000 kPa, x2 = 0.2999	890.1	–
313.15 K, 80000 kPa, x2 = 0.3966	884.8	–
313.15 K, 80000 kPa, x2 = 0.5289	877.3	–
313.15 K, 80000 kPa, x2 = 0.6367	870.5	–
313.15 K, 80000 kPa, x2 = 0.7249	864.6	–
313.15 K, 80000 kPa, x2 = 0.7977	859.3	–
313.15 K, 80000 kPa, x2 = 0.9131	850.3	–
313.15 K, 90000 kPa, x2 = 0	909	–
313.15 K, 90000 kPa, x2 = 0.1005	904.4	–
313.15 K, 90000 kPa, x2 = 0.2261	898.1	–
313.15 K, 90000 kPa, x2 = 0.2999	894.5	–
313.15 K, 90000 kPa, x2 = 0.3966	889.2	–
313.15 K, 90000 kPa, x2 = 0.5289	881.9	–
313.15 K, 90000 kPa, x2 = 0.6367	875.1	–
313.15 K, 90000 kPa, x2 = 0.7249	869.1	–
313.15 K, 90000 kPa, x2 = 0.7977	863.8	–
313.15 K, 90000 kPa, x2 = 0.9131	854.8	–
313.15 K, 100000 kPa, x2 = 0	913.3	–
313.15 K, 100000 kPa, x2 = 0.1005	908.7	–
313.15 K, 100000 kPa, x2 = 0.2261	902.5	–
313.15 K, 100000 kPa, x2 = 0.2999	898.8	–
313.15 K, 100000 kPa, x2 = 0.3966	893.6	–
313.15 K, 100000 kPa, x2 = 0.5289	886.2	–
313.15 K, 100000 kPa, x2 = 0.6367	879.4	–
313.15 K, 100000 kPa, x2 = 0.7249	873.5	–
313.15 K, 100000 kPa, x2 = 0.7977	868.2	–
313.15 K, 100000 kPa, x2 = 0.9131	859.2	–
313.15 K, 120000 kPa, x2 = 0	921.4	–
313.15 K, 120000 kPa, x2 = 0.1005	916.9	–
313.15 K, 120000 kPa, x2 = 0.2261	910.7	–
313.15 K, 120000 kPa, x2 = 0.2999	907.1	–
313.15 K, 120000 kPa, x2 = 0.3966	901.9	–
313.15 K, 120000 kPa, x2 = 0.5289	894.5	–
313.15 K, 120000 kPa, x2 = 0.6367	887.7	–
313.15 K, 120000 kPa, x2 = 0.7249	881.8	–
313.15 K, 120000 kPa, x2 = 0.7977	876.5	–
313.15 K, 120000 kPa, x2 = 0.9131	867.5	–
313.15 K, 140000 kPa, x2 = 0	928.9	–
313.15 K, 140000 kPa, x2 = 0.1005	924.3	–
313.15 K, 140000 kPa, x2 = 0.2261	918.7	–
313.15 K, 140000 kPa, x2 = 0.2999	914.5	–
313.15 K, 140000 kPa, x2 = 0.3966	909.6	–
313.15 K, 140000 kPa, x2 = 0.5289	902.2	–
313.15 K, 140000 kPa, x2 = 0.6367	895.5	–
313.15 K, 140000 kPa, x2 = 0.7249	889.6	–
313.15 K, 140000 kPa, x2 = 0.7977	884.4	–
313.15 K, 140000 kPa, x2 = 0.9131	875.3	–
323.15 K, 100 kPa, x2 = 0	–	0.62
323.15 K, 100 kPa, x2 = 0.1002	–	0.615
323.15 K, 100 kPa, x2 = 0.2327	–	0.631
323.15 K, 100 kPa, x2 = 0.3	–	0.653
323.15 K, 100 kPa, x2 = 0.3969	–	0.683
323.15 K, 100 kPa, x2 = 0.53	–	0.754
323.15 K, 100 kPa, x2 = 0.637	–	0.835
